Where a name gives a salt, the structure may show the parent alone.
Key:
in vivo = conditions: male, C57BL/6J, mouse, po, 5 mg/kg
Description: Male C57BL/6J mouse was use in the in vivo distribution assay. The sample of brain, spinal cord and serum were collected for the drug distribution calculation.
Before commencing the study, the mice were acclimated to the test facility for at least 3 days. During this period, their general health was assessed by veterinary staff or other authorized personnel. The mice were housed in groups of up to four per cage in polysulfone cages, using either certified aspen shaving bedding or corncob bedding. This bedding was regularly tested for environmental contaminants by the manufacturer. The facility's environment was carefully controlled to maintain a temperature range of 20-26° C., relative humidity between 40 to 70%, and a 12-hour light/12-hour dark cycle, although this cycle can be interrupted for study-related activities. Temperature and humidity were continuously monitored by the Vawasala ViewLinc Monitoring system.
For dosing, an appropriate amount of the compounds was accurately weighed and mixed with a suitable volume of vehicle to achieve a clear solution. This process may require vertexing or sonication in a water bath. The animals were dosed within four hours of formulation preparation. Samples from each formulation were then collected for dose validation using either LC/UV or LC-MS/MS analysis.
Oral gavage was employed for dosing following the facility's SOPs, with the dose volume based on the animal's body weight measured on the morning of the dosing day.
Blood collections were performed from the saphenous vein or another suitable site, with approximately 0.1 mL collected per time point into pre-chilled commercial EDTA-K2 tubes. The samples were kept on wet ice until centrifugation at 4° C. and 3,200 g for 10 minutes. The plasma was then transferred into pre-labeled 96-well plates or polypropylene tubes, quick-frozen over dry ice, and stored at −60° C. or lower until LC-MS/MS analysis. […]
We calculated AUC ratio from the equation AUC ratio=Tissue AUC0-last/plasma AUC0-last. […]

plasma proteins = experiment: in vitro; conditions: male, C57BL/6J, mouse, pH 7.4
Description: (§1) The experiment utilized a HT-Dialysis plate (HTD 96 b) and a dialysis membrane with a molecular weight cutoff of 12-14 kDa. The plasma was derived from male C57BL/6J mice, treated with EDTA-K2 as an anticoagulant. The experimental procedure commenced with plasma thawing under cold tap water, followed by centrifugation at 3220×g for 5 minutes to eliminate clots, and pH adjustment to 7.4+0.1.
(§2) Dialysis membranes were initially hydrated in ultra-pure water for about one hour and then treated in a 20:80 ethanol-water mixture for 20 minutes. These prepared membranes could be used immediately or stored at 2-8° C. for up to a month. Membranes were rinsed in ultra-pure water before use.
(§3) Test and control compounds were prepared at a 400 µM concentration by diluting stock solutions with DMSO. Working solutions were further diluted to create 2 μM loading matrix solutions, which were thoroughly mixed. In the assay, 50 μL aliquots of these solutions were dispensed in triplicate into a Sample Collection Plate, balanced with blank PBS to a final volume of 100 µL per well. A stop solution containing acetonitrile, tolbutamide, and labetalol was added, and samples were mixed and cooled at 2 to 8° C.
(§4) During the dialysis, 100 μL aliquots from the loading matrix were placed in the dialysis well's donor side, matched with an equal volume of PBS on the receiver side, and incubated at 37° C. for 4 hours. Post-dialysis, samples from both sides were collected, balanced to 100 μL with corresponding blank fluids, treated with stop solution, vortexed, and centrifuged to prepare for LC-MS/MS analysis.
(§5) Data analysis involved calculating the percentages of Unbound, Bound, and Recovery of the compounds post-dialysis. % Unbound was calculated as the ratio of the compound's peak area on the receiver side to its internal standard, reflecting the fraction that crossed the membrane. % Bound was the complement of % Unbound, representing the fraction retained on the donor side. % Recovery was determined from the peak area ratios on both sides of the membrane, assessing the dialysis efficiency in retaining the compound. These metrics provided insights into the compound's free, bound, and recoverable quantities, elucidating its behavior in the dialysis system.

in vitro = conditions: male, C57BL/6J, mouse, plasma, pH 7.4
Description: as §1, §2, §3, §4, §5

brain proteins = experiment: in vitro; conditions: for % Undiluted Unbound (n = 3): brain homogenate
Description: The initial preparation of the dialysis membrane involved thawing brain homogenate in a water bath at room temperature and subsequently heating it at 37° C. for 10 minutes. The dialysis setup utilized was from HT Dialysis LLC, featuring a HT-Dialysis plate (Model HTD 96 b) and a dialysis membrane with a molecular weight cutoff of 12-14 kDa.
The membrane underwent a comprehensive pretreatment which included hydration in ultra-pure water at room temperature for approximately one hour. This was followed by separation and immersion in a 20:80 ethanol:water solution for about 20 minutes. After this treatment, the membranes were either used immediately or stored at 2-8° C. for up to one month, with a final rinse in ultra-pure water prior to experimental use.
For compound preparation, test and control substances were first dissolved to create 400 μM working solutions by mixing 4 μL of stock solution with 96 μL of DMSO. These working solutions were then further diluted to 2 μM in a blank matrix by combining 3 μL of the prepared solution with 597 μL of matrix, ensuring thorough mixing.
During the assay, 50 μL aliquots of the 2 μM compound-matrix mixture were dispensed in triplicate into a Sample Collection Plate. Each aliquot was paired with an equal volume of blank PBS to standardize the total volume to 100 μL per well at a 1:1 matrix to PBS ratio. A stop solution comprising 500 μL of acetonitrile with tolbutamide and labetalol at 250 nM each was added to stabilize the samples at TO. The samples were then shaken at 800 rpm for 10 minutes and stored at 2-8° C.
The dialysis procedure included assembling the dialysis device according to the manufacturer's specifications, loading the matrix aliquots into the donor side of the dialysis wells, and conducting the dialysis under a humidified atmosphere with 5% CO2 at 37° C. for 4 hours.
Post-dialysis, 50 μL samples were collected from both the receiver and donor sides into new 96-well plates. Volumes were adjusted to 100 μL by adding an equivalent amount of the opposite blank matrix or PBS. The samples were prepared for LC-MS/MS analysis after thorough vertexing and centrifugation. Blank control samples were prepared and processed similarly to mirror the test conditions.
Data analysis involved calculating the percentages of undiluted unbound and bound fractions, and recovery of the compounds.

MC38 tumor = system: MC38 tumor
Description: The cells in exponential growth phase were harvested and quantitated by cell counter before tumor inoculation. […] The date of randomization was denoted as day 0.
After tumor cells inoculation, the animals were checked daily for morbidity and mortality. […] Mortality and observed clinical signs were recorded for individual animals in detail. […] Dosing as well as tumor and body weight measurements were conducted in a Laminar Flow Cabinet. The body weights and tumor volumes were measured by using StudyDirector™ software (version 3.1.399.19).

[1] = mouse, in vivo, po, 1 mg/kg
Description: Initially, mice were acclimatized to the testing environment for 8 hours the day before the experiment, followed by at least 2 hours of habituation on the day of the test. The mice were then grouped randomly based on their body weight into six per group, ensuring a balanced distribution for the administration of the drug, which was dissolved in 20% HP-β-CD in water.
The locomotor activity was monitored by placing the mice in the center of a test box, with a video tracking system measuring the distance traveled every 5 minutes for 60 minutes. The testing began at T=0 minutes, immediately after administering the vehicle or compounds, and concluded at T=60 minutes. For data analysis, Prism 8.3.0 software was utilized, employing Two-way ANOVA followed by Bonferroni's multiple comparison test to analyze distance variations across different time points and One-way ANOVA followed by Dunnett's multiple comparisons test for assessing the total distance covered by the groups. A significance level of p<0.05 was established for determining significant differences.

P-glycoprotein (P-gp) = P-glycoprotein (P-gp) (Homo sapiens, UniProt P08183); experiment: in vitro; conditions: MDCK-MDR1
Description: MDR1-MDCK II cells (obtained from Piet Borst at the Netherlands Cancer Institute) were seeded onto Polycarbonate membranes (PC) in 96-well insert systems at 3.33×10^5 cells/mL until to 4-7 days for confluent cell monolayer formation.
Selected α2AR agonist from table 3s were diluted with the transport buffer (HBSS with 10.0 mM Hepes, pH7.4) from DMSO stock solution to a concentration of 2 μM (DMSO<1%) and applied to the apical or basolateral side of the cell monolayer. […] Permeation of the test compounds from A to B direction and/or B to A direction was determined in duplicate. Digoxin was tested at 10.0 μM from A to B direction and B to A direction in duplicate. The plate was incubated for 2.5 hours in CO2 incubator at 37.0±1.0° C., with 5.0% CO2 at saturated humidity without shaking. In addition, the efflux ratio of each compound was also determined. Test and reference compounds were quantified by LC/MS/MS analysis based on the peak area ratio of analyte/IS.
After transport assay, lucifer yellow rejection assay was applied to determine the cell monolayer integrity. Buffers were removed from both apical and basolateral chambers, followed by the addition of 75 μL of 100 μM lucifer yellow in transport buffer and 250 μL transport buffer in apical and basolateral chambers, respectively. The plate was incubated for 30 minutes at 37.0° C. with 5.0% CO2 and 95.0% relative humidity without shaking. After 30 minutes incubation, 20 μL of lucifer yellow samples were taken from the apical sides, followed by the addition of 60 μL of transport Buffer. And then 80 μL of lucifer yellow samples were taken from the basolateral sides. The relative fluorescence unit (RFU) of lucifer yellow was measured at 425/528 nm (excitation/emission) with an Envision plate reader.
The apparent permeability coefficient Papp (cm/s) was calculated using the equation: […]
wherein dCr/dt is the cumulative concentration of compound in the receiver chamber as a function of time (μM/s); Vr is the solution volume in the receiver chamber (0.075 mL on the apical side, 0.25 mL on the basolateral side); A is the surface area for the transport, i.e. 0.143 cm2 for the area of the monolayer; and C0 is the initial concentration in the donor chamber (μM).
The efflux ratio was calculated using the equation: […]

[2] = D17, G2: 5 mg/kg p.o. QD Day 0~Day 3, then 2 mg/kg QD Day 4~Day 17

Chain of P-glycoprotein (P-gp) (P08183 whole entry): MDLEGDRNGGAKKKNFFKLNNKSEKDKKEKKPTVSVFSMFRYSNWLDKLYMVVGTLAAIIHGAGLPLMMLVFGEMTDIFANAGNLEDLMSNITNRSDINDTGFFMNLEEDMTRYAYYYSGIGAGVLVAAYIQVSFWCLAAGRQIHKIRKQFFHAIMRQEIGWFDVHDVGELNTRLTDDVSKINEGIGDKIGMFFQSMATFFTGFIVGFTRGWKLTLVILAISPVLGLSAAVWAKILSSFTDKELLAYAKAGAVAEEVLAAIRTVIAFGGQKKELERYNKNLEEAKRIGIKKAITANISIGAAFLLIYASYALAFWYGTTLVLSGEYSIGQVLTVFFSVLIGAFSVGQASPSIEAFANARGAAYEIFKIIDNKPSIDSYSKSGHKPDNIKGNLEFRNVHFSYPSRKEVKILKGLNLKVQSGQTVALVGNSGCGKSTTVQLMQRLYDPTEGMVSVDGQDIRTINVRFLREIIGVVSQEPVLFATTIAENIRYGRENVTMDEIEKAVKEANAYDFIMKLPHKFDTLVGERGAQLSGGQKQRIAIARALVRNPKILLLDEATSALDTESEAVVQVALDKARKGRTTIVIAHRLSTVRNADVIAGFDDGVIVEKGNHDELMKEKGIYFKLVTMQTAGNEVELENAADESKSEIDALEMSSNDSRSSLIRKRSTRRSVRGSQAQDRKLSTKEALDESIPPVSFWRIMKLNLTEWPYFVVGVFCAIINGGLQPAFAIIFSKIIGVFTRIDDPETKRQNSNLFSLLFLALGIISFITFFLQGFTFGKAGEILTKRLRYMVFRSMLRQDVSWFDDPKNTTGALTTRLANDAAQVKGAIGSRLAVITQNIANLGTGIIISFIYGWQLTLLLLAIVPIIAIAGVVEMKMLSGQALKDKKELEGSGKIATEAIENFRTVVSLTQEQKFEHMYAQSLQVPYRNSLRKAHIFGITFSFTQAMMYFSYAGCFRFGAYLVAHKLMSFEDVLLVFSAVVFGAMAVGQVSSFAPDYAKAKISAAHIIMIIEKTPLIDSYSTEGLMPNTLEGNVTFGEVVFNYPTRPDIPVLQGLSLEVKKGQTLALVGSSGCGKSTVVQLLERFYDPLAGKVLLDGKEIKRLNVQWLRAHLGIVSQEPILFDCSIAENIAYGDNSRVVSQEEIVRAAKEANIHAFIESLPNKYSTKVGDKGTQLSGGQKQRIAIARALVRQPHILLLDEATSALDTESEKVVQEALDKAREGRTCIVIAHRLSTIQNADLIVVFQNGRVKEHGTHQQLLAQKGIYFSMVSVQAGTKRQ

Row | recovery at 4 h, 2 μM (brain proteins) [%] | % Undiluted Unbound (n = 3) (brain proteins; 4 h, 2 μM) [%] | SMILES | Kp (in vivo) | recovery at 4 h, 2 μM (plasma proteins) [%] | fraction unbound at 4 h, 2 μM (in vitro) | other results
1 | – | – | Clc1cccc(Cl)c1N=C1NCCN1 [Clonidine, clonidine] | – | – | – | T/C (%) (MC38 tumor; [2]): 27.38%; TGI (%) (MC38 tumor; [2]): 72.62%; Tumor volume (mm^3) (mean ± SEM) (MC38 tumor; [2]): 766.52 ± 147.17 mm^3; state of mice at high dose (MC38 tumor; G2 group, 5 mg/mL, Day 0-3, p.o.): poor state of mice; sedation (total distance travelled 0-60 min) [1]: significant sedation
2 | 93.8 | 6.3 | Cc1cccc([C@H](C)c2cnc[nH]2)c1C [Dexmedetomidine HCl, dexmedetomidine HCl] | 1.26 | 88.9 | 0.068 | –
3 | – | – | Oc1ccc2c(c1)C(Cc1c[nH]cn1)CC2 (centres unmarked) [Fadolmidine, reference compound] | – | – | – | Efflux ratio (P-glycoprotein (P-gp)): 0.80
4 | 109 | 2.6 | CC(C)NCC(O)COc1cccc2ccccc12 (centres unmarked) [Propranolol, propranolol] | – | – | – | % Undiluted Bound (n = 3) (brain proteins; 4 h, 2 μM): 97.4%

Row | SMILES | recovery at 4 h, 2 μM (brain proteins) [%] | % Undiluted Unbound (n = 3) (brain proteins; 4 h, 2 μM) [%] | Kp (in vivo) | recovery at 4 h, 2 μM (plasma proteins) [%] | fraction unbound at 4 h, 2 μM (in vitro) | other results
5 | Clc1cccc(Cl)c1N=C1NCCN1 [Clonidine HCl, clonidine HCl] | 105 | 23.0 | 2.27 | 93.2 | 0.708 | Kp uu (in vivo): 0.739

— patent US20240374573A1, “IMIDAZOLE CONTAINING COMPOUNDS, DERIVATIVES THEREFORE, AND USES THEREOF” (AglaeaPharma Inc., priority 2023, published 2024)
